We go through ten molecules from ChEMBL document CHEMBL1201862, “PubChem BioAssay data set” (2004).

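Results reflect a 48-hour exposure of cells in 96-well plates to compound at five concentrations. GI50 marks 50% less growth.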 Calls of active or inactive are those of the source. Rule as the data show it: active = GI50 up to about 1.1 µM and inactive = higher. Where only a bound is given, the exact number is not on record here.

Holding throughout (assay): DTP human tumour cell line panel, 48 h
Experiment [1] concerns HOP-92.
Experiment [2] concerns BT-549.
The test system of experiment [3] is CCRF-CEM.
The subject of experiment [4] is SNB-75.
In experiment [5] the test system is OVCAR-4.
Experiment [6] deals with NCI-H226.
Experiment [7] relates to NCI-H23.
The subject of experiment [8] is HT-29.
The test system of experiment [9] is HCT-116.
Experiment [10] has as its system DU-145.
The test system of experiment [11] is SK-OV-3.
The test system of experiment [12] is MOLT-4.
In experiment [13] the test system is OVCAR-3.
For experiment [14], the system named is SK-MEL-2.
Experiment [15] concerns SF-268.
In experiment [16] the test system is HCT-15.
For experiment [17], the system named is HOP-62.
For experiment [18], the system named is SK-MEL-5.
Experiment [19] deals with T47D.
Experiment [20] relates to SK-MEL-28.

One may read the GI50 as the concentration giving 50% growth inhibition. Consider `O=C1c2ccccc2C(=O)c2c(NC3CCCCC3)ccc(Nc3ccc(S(=O)(=O)O)cc3)c21`, for which the GI50 in experiment [1] was > 100 µM (inactive); in [2] it was 43.8 µM (inactive); in [3] it was 26.3 µM (inactive); in [4] it was > 100 µM (inactive); in [5], 33.9 µM (inactive); in experiment [6] it was > 100 µM (inactive). Besides, the GI50 in [7] is 77.1 µM (inactive); in experiment [8], 39.4 µM (inactive); in experiment [9], 29.7 µM (inactive); in experiment [10], > 100 µM (inactive); in [11], > 100 µM (inactive); in experiment [12], 34.9 µM (inactive). The GI50 in [13] is 28.2 µM (inactive); in experiment [14] it was 21.8 µM (inactive); in experiment [15] it was 34.8 µM (inactive); in experiment [16], 32.6 µM; in [17], > 100 µM (inactive); in experiment [18], 63 µM (inactive). For the same molecule, the GI50 is 29 µM (inactive) in experiment [19] and > 100 µM (inactive) in experiment [20].

On to `COc1ccc(-c2ncnc(-c3ccc(OC)c(OC)c3)n2)cc1OC`, for which the GI50 in experiment [1], in experiment [2], in experiment [3], in [4], in [6] and in [7] was > 100 µM (inactive) in each case. The GI50 in [8], in [9], in [10], in experiment [11], in experiment [13] and in experiment [14] was > 100 µM (inactive) each time. Moreover, the GI50 in [15], in [17], in experiment [18], in [19] and in experiment [20] was > 100 µM (inactive) in each case.

As for `Cc1ccc(S(=O)(=O)N(CC(O)c2ccccc2)c2ccccc2F)cc1` (stereo unspecified), the GI50 in experiment [1] is 10.2 µM (inactive); in experiment [2], 16.6 µM (inactive); in experiment [3], 25.3 µM (inactive); in experiment [4] it was 12.3 µM (inactive); in [5], 13.5 µM (inactive); in [6], 20.7 µM (inactive). Further, the GI50 was 16.6 µM (inactive) in experiment [7]; 19.3 µM (inactive) in [8]; 12.7 µM (inactive) in [9]; 16.1 µM (inactive) in experiment [10]; 17.4 µM (inactive) in experiment [11]; 11.3 µM (inactive) in experiment [13]. The GI50 in experiment [14] is 17.9 µM (inactive); in experiment [15], 15.9 µM (inactive); in experiment [16], 17.7 µM; in [17], 16.8 µM (inactive); in experiment [18] it was 15.9 µM (inactive); in experiment [19], 14.5 µM (inactive). Besides, the GI50 in experiment [20] was 18 µM (inactive).

As for `COc1cc(S(=O)(=O)Nc2ccc(-c3csc(N4C(=O)C(Cl)C4c4ccccc4O)n3)cc2)ccc1Cl` (stereo unspecified), the GI50 in experiment [1] is 28 µM (inactive); in experiment [2], 29 µM (inactive); in experiment [3] it was 2.73 µM (inactive); in experiment [4], 62.7 µM (inactive); in experiment [5], 26.4 µM (inactive); in [6], 37.8 µM (inactive). Also, the GI50 in experiment [7] was 23.6 µM (inactive); in experiment [8], 36.8 µM (inactive); in experiment [9], 30.3 µM (inactive); in [10] it was 14.3 µM (inactive); in [11], > 100 µM (inactive); in experiment [12], 9.59 µM (inactive). In addition, the GI50 was > 100 µM (inactive) in experiment [13]; 37.8 µM (inactive) in [14]; 25.8 µM (inactive) in experiment [15]; greater than 100 µM in experiment [16]; > 100 µM (inactive) in experiment [17]; 37.1 µM (inactive) in experiment [18]. In addition, the GI50 was 13.1 µM (inactive) in experiment [19] and 38.1 µM (inactive) in [20].

As to `Nc1nc(SCc2ccccc2[N+](=O)[O-])c2[nH]cnc2n1`, the GI50 is 2.23 µM (inactive) in experiment [1]; 26.2 µM (inactive) in experiment [2]; > 44.8 µM (inactive) in [3]; > 42.5 µM (inactive) in experiment [4]; 62.2 µM (inactive) in experiment [5]; > 50.9 µM (inactive) in experiment [6]. Also, the GI50 in experiment [7] is > 58.1 µM (inactive); in experiment [8], 32.8 µM (inactive); in experiment [9] it was > 60.1 µM (inactive); in experiment [10] it was 44.7 µM (inactive); in experiment [11] it was > 71 µM (inactive); in experiment [12], > 100 µM (inactive). The GI50 was > 70.8 µM (inactive) in experiment [13]; 26.7 µM (inactive) in experiment [14]; > 35.7 µM (inactive) in [15]; greater than 56.5 µM in experiment [16]; > 69.5 µM (inactive) in experiment [17]; 18.9 µM (inactive) in experiment [18]. Besides, the GI50 was 23.3 µM (inactive) in [19] and > 61.1 µM (inactive) in experiment [20].

For `O=C1C(Br)=C(Br)C(=O)c2ccc(=O)ccc21`, the GI50 in experiment [1] is 18.5 µM (inactive); in experiment [2], 24.2 µM (inactive); in experiment [3] it was 2.88 µM (inactive); in experiment [4] it was 57.9 µM (inactive); in [5], 17.5 µM (inactive); in experiment [6], > 53 µM (inactive). Besides, the GI50 in experiment [7] was 21.2 µM (inactive); in experiment [8], 30.8 µM (inactive); in experiment [9], 20 µM (inactive); in experiment [10], > 100 µM (inactive); in experiment [11], > 100 µM (inactive); in [12], 3.36 µM (inactive). The GI50 is 20.8 µM (inactive) in [13]; 48.9 µM (inactive) in experiment [14]; 30.3 µM (inactive) in experiment [15]; 18.7 µM in [16]; 60.1 µM (inactive) in experiment [17]; 21 µM (inactive) in experiment [18]. Moreover, the values for the GI50 in [19] and in [20] were 24.4 µM (inactive) and 27 µM (inactive), respectively.

As for `Cc1ccc2ccc(=O)oc2c1`, the GI50 in [1], in experiment [2], in experiment [3], in [4], in experiment [5] and in experiment [6] was > 100 µM (inactive) throughout. In addition, the GI50 in [7], in [8], in [9], in experiment [10], in experiment [12] and in experiment [13] was > 100 µM (inactive) in each case. Moreover, the GI50 is > 100 µM (inactive) in experiment [14]; > 100 µM (inactive) in experiment [15]; > 100 µM (inactive) in [17]; > 100 µM (inactive) in experiment [18]; 94.6 µM (inactive) in [19]; > 100 µM (inactive) in experiment [20].

On to `Oc1cc(O)c2c(c1)O[C@H](c1cc(O)c(O)c(O)c1)[C@H](O)C2` [EPIGALLOCATECHIN], for which the GI50 in experiment [1] was 20.7 µM (inactive); in experiment [2], 19.2 µM (inactive); in experiment [3] it was 17.9 µM (inactive); in [4] it was 31.6 µM (inactive); in experiment [5], 14.7 µM (inactive); in experiment [6] it was 26.4 µM (inactive). In addition, the GI50 in experiment [7] is 23.1 µM (inactive); in experiment [9], 19.2 µM (inactive); in [10], 63.7 µM (inactive); in experiment [11], 18.6 µM (inactive); in experiment [12], 14.6 µM (inactive); in experiment [13] it was 47 µM (inactive). Also, the GI50 in experiment [14] was 7.96 µM (inactive); in [15], 25.4 µM (inactive); in experiment [16], 34.8 µM; in [17], 19.7 µM (inactive); in [18], 16.9 µM (inactive); in [19], 37.2 µM (inactive). Further, the GI50 in experiment [20] was 36.6 µM (inactive).

Consider `COC(=O)C1=CO[C@@H](OC2OC(CO)C(O)C(O)C2O)[C@@H]2[C@H](C)[C@@H](O)[C@@H](O)[C@]12O` (stereo partly specified), for which the GI50 in [1] was > 100 µM (inactive); in experiment [2], > 100 µM (inactive); in experiment [3], > 10 µM (inactive); in experiment [4], 33 µM (inactive); in experiment [6] it was > 100 µM (inactive); in experiment [7], > 100 µM (inactive). Besides, the GI50 in [8], in experiment [9], in [10], in [11], in [12] and in [13] was > 100 µM (inactive) each time. Moreover, the GI50 in experiment [14] is > 100 µM (inactive); in [15], > 100 µM (inactive); in experiment [16] it was greater than 100 µM; in experiment [17], > 100 µM (inactive); in experiment [18] it was > 100 µM (inactive); in [19], > 100 µM (inactive). For the same molecule, the GI50 in experiment [20] is > 100 µM (inactive).

In the case of `O=C1/C(=C/c2ccc([N+](=O)[O-])cc2)Sc2scc(-c3cccc([N+](=O)[O-])c3)[n+]21`, the GI50 was 3.66 µM (inactive) in experiment [1]; 5.36 µM (inactive) in [2]; 0.364 µM (active) in [3]; 10.6 µM (inactive) in [4]; 9.53 µM (inactive) in experiment [5]; 11.5 µM (inactive) in [6]. For the same molecule, the GI50 in [7] is 7.93 µM (inactive); in [8] it was 2.31 µM (inactive); in experiment [9], 4.6 µM (inactive); in experiment [10] it was 10.6 µM (inactive); in experiment [11] it was 15.9 µM (inactive); in [12], 1.99 µM (inactive). Also, the GI50 is 4.24 µM (inactive) in experiment [13]; 13.9 µM (inactive) in experiment [14]; 2.15 µM (inactive) in [15]; 2.26 µM in experiment [16]; 15.5 µM (inactive) in experiment [17]; 5.86 µM (inactive) in experiment [18]. Further, the GI50 in experiment [19] was 3.35 µM (inactive).
